Source: ChEMBL document CHEMBL1141509, “Development of pyridopyrimidines as potent Akt1/2 inhibitors” (Bioorg Med Chem Lett, 2008)

Key:
[1] = target: T1, RAC-alpha serine/threonine-protein kinase (Homo sapiens, UniProt P31749); assay: Inhibition of Akt1
[2] = target: T2, RAC-beta serine/threonine-protein kinase (Homo sapiens, UniProt P31751); assay: Inhibition of Akt2
[3] = target: T1, RAC-alpha serine/threonine-protein kinase; assay: Inhibition of human Akt1 in human C33A cells by immunoprecipitation kinase assay; format: cell-based, C-33-A
[4] = target: T2, RAC-beta serine/threonine-protein kinase; assay: Inhibition of Akt2 in human C33A cells by immunoprecipitation kinase assay; format: cell-based, C-33-A
[5] = Inhibition of PKC
[6] = Inhibition of PKA
[7] = target: RAC-gamma serine/threonine-protein kinase (Homo sapiens, UniProt Q9Y243); assay: Inhibition of Akt3
RAC-gamma serine/threonine-protein kinase, sequence (Q9Y243 whole entry): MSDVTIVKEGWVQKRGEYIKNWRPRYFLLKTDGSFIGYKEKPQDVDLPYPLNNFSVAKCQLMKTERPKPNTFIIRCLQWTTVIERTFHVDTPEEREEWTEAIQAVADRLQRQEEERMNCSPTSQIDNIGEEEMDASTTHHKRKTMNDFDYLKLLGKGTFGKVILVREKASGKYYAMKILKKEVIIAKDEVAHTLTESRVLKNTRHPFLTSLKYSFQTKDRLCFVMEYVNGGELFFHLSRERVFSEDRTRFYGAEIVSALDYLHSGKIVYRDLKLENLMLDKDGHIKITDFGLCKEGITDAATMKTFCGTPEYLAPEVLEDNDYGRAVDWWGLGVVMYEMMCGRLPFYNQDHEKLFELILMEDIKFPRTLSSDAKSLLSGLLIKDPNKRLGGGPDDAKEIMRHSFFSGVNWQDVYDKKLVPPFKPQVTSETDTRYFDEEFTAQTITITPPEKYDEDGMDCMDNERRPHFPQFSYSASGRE

[8] = target: T3, Serine/threonine-protein kinase Sgk1 (Homo sapiens, UniProt O00141); assay: Inhibition of SGK
T3 sequence (O00141 whole entry): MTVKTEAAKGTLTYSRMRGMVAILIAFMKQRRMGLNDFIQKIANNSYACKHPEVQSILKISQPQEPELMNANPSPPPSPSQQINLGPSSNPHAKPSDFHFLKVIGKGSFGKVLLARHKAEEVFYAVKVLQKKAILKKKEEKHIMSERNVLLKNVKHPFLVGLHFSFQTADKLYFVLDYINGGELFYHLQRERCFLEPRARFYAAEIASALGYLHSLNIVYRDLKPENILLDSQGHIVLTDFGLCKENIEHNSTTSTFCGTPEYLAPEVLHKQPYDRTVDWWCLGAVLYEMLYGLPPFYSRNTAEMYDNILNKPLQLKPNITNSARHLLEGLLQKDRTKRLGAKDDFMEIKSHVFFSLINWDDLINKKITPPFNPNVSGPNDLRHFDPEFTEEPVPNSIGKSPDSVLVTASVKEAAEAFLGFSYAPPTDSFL

T2 sequence (P31751 whole entry): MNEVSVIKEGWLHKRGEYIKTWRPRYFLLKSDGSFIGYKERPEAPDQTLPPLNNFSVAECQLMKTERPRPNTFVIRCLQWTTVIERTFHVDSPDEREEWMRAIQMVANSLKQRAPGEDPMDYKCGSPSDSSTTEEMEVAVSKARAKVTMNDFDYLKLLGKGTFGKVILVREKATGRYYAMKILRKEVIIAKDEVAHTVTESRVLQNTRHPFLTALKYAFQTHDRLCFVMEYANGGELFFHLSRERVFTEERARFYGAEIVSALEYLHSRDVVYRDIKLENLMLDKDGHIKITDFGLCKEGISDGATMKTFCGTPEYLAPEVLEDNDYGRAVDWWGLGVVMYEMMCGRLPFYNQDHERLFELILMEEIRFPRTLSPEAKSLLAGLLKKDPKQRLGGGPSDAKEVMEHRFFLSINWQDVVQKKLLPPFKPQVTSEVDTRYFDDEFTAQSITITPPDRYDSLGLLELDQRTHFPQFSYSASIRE
T1 sequence (P31749 whole entry): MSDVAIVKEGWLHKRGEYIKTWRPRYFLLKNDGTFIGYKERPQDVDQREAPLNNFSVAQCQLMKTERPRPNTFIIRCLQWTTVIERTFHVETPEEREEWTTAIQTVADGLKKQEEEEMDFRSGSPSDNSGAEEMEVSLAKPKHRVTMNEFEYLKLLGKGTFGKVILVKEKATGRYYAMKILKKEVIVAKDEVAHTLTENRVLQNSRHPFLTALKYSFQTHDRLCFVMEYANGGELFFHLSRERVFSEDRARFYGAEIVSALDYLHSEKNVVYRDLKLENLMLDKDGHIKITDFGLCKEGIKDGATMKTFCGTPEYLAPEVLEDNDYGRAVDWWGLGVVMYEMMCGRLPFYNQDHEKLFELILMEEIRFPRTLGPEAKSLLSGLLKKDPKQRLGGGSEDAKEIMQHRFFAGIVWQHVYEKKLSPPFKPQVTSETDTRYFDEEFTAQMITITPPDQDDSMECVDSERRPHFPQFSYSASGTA

Compound	IC50 [1]	IC50 [2]	IC50 [3]	IC50 [4]	IC50 [5]	IC50 [6]	IC50 [7]	IC50 [8]
N#Cc1ncc2cc(-c3ccccc3)c(-c3ccc(CN4CCC(c5nnc(-c6ccccn6)[nH]5)CC4)cc3)nc2n1	24 nM	59 nM	100 nM	586 nM				
CSc1ncc2cc(-c3ccccc3)c(-c3ccc(CNCCc4c[nH]cn4)cc3)nc2n1	99 nM	1240 nM						
CSc1ncc2cc(-c3ccccc3)c(-c3ccc(CN(C)CCc4cn[nH]c4)cc3)nc2n1	1520 nM	17500 nM						
COc1ncc2cc(-c3ccccc3)c(-c3ccc(CN4CCC(c5nnc(-c6ccccn6)[nH]5)CC4)cc3)nc2n1	23.6 nM	107 nM	42.6 nM	2300 nM				
CSc1ncc2cc(-c3ccccc3)c(-c3ccc(CN4CCC(c5cc(-c6ccncc6)[nH]n5)CC4)cc3)nc2n1	4.5 nM	57 nM	85 nM	635 nM				
CSc1ncc2cc(-c3ccccc3)c(-c3ccc(CNCCc4nccs4)cc3)nc2n1	198 nM	1380 nM						
CNc1ncc2cc(-c3ccccc3)c(-c3ccc(CN4CCC(c5nnc(-c6ccccn6)[nH]5)CC4)cc3)nc2n1	6 nM	94.4 nM	20.3 nM	899 nM	> 50000 nM	> 50000 nM	2470 nM	> 50000 nM
CSc1ncc2cc(-c3ccccc3)c(-c3ccc(CN4CCC(NC(=O)CNC(C)=O)CC4)cc3)nc2n1	286 nM	5130 nM						
CSc1ncc2cc(-c3ccccc3)c(-c3ccc(CNCCc4nnc(N)s4)cc3)nc2n1	46 nM	529 nM						
CSc1ncc2cc(-c3ccccc3)c(-c3ccc(CN4CCC(C(=O)Nc5ccncc5)CC4)cc3)nc2n1	9.7 nM	301 nM	133 nM	1130 nM				
CSc1ncc2cc(-c3ccccc3)c(-c3ccc(CNCCc4nc[nH]n4)cc3)nc2n1	139 nM	1710 nM						
CSc1ncc2cc(-c3ccccc3)c(-c3ccc(CNCCc4nnc(C)[nH]4)cc3)nc2n1	162 nM	1790 nM						
CSc1ncc2cc(-c3ccccc3)c(-c3ccc(CN4CCC(C(=O)NCCC(N)=O)CC4)cc3)nc2n1	91 nM	2110 nM						
CSc1ncc2cc(-c3ccccc3)c(-c3ccc(CN4CCC(n5ncc6c(N)ncnc65)CC4)cc3)nc2n1	4 nM	44 nM	60 nM	828 nM				
CCNC(=O)NC1CCN(Cc2ccc(-c3nc4nc(SC)ncc4cc3-c3ccccc3)cc2)CC1	81 nM	1910 nM	795 nM	5300 nM				
CSc1ncc2cc(-c3ccccc3)c(-c3ccc(CN4CCC(C(N)=O)CC4)cc3)nc2n1	29 nM	928 nM	560 nM	9260 nM				

Other lines, results leading:

IC50 [1]	IC50 [2]	IC50 [3]	IC50 [4]	IC50 [5]	IC50 [6]	IC50 [7]	IC50 [8]	Compound
226 nM	1300 nM							CSc1ncc2cc(-c3ccccc3)c(-c3ccc(CNCCC(N)=O)cc3)nc2n1
15 nM	90 nM							CSc1ncc2cc(-c3ccccc3)c(-c3ccc(CNCCC(=O)c4ccccc4N)cc3)nc2n1
8.5 nM	267 nM	79 nM	1570 nM					CSc1ncc2cc(-c3ccccc3)c(-c3ccc(CN4CCC(c5nnc(N)s5)CC4)cc3)nc2n1
63 nM	494 nM							CSc1ncc2cc(-c3ccccc3)c(-c3ccc(CNCCc4nnc(-c5ccccc5)[nH]4)cc3)nc2n1
6.2 nM	35 nM	96.4 nM	3710 nM					NC(=O)c1ncc2cc(-c3ccccc3)c(-c3ccc(CN4CCC(c5nnc(-c6ccccn6)[nH]5)CC4)cc3)nc2n1
14 nM	99 nM	295 nM	468 nM					Nc1ncnc2nc(-c3ccc(CN4CCC(n5ncc6c(N)ncnc65)CC4)cc3)c(-c3ccccc3)cc12
765 nM	8920 nM							CSc1ncc2cc(-c3ccccc3)c(-c3ccc(CNCCCN4CCN(C)CC4)cc3)nc2n1
3.8 nM	26 nM	9.3 nM	589 nM					CSc1ncc2cc(-c3ccccc3)c(-c3ccc(CN4CCC(c5nnc(-c6ccccn6)[nH]5)CC4)cc3)nc2n1
64 nM	1300 nM							CSc1ncc2cc(-c3ccccc3)c(-c3ccc(CN4CCC(c5nc(-c6cccnc6)no5)CC4)cc3)nc2n1
	239 nM		1810 nM					Nc1ncnc2nc(-c3ccc(CN4CCC(c5nc6ccc(F)cc6[nH]5)CC4)cc3)c(-c3ccccc3)cc12
90 nM	1160 nM							CSc1ncc2cc(-c3ccccc3)c(-c3ccc(CNCCc4cccnc4)cc3)nc2n1
137 nM	1510 nM							CSc1ncc2cc(-c3ccccc3)c(-c3ccc(CNCCCn4ccnc4)cc3)nc2n1
